US20100249223A1, “NEW USE FOR CANNABINOID-CONTAINING PLANT EXTRACTS” (priority 2007, published 2010)
Like-named read-outs stand apart in the source and are kept apart here.

Columns and labels:
TRPV1 channel = target: T1, TRPV1 channel (Rattus norvegicus, UniProt O35433); test: Intracellular Ca2+ elevation in HEK-293 cells over-expressing rat TRPV1; format: cell-based; details: for Emax: HEK293, read-out: Maximal response (% ionomycin)
T1 construct: expressed in transfected cells
Method: (§1) The applicants have conducted experiments using cannabinoid-containing plant extracts on rat recombinant TRPV1, TRPM8 channels and TRPA1 (also known as ANKTM1) channels, both were stably expressed in HEK293 cells. […] The TRPM8 channel is the receptor from menthol and icilin. The intracellular Ca^2+ concentration was determined before and after the addition of various concentrations of test compounds.
(§2) For the experiments with the TRPM8 channels menthol and icilin were used to activate the channels. For the experiments with the TRPV1 channels ionomycin was used to activate the channels. The cannabinoid-containing plant extracts were produced from cannabis plants using the subcritical CO2 extraction technique as described in the applicants granted United Kingdom patent GB2391865. The cannabinoids were then purified further using the method disclosed in the applicants granted United Kingdom patent GB2393721 to produce substantially pure cannabinoids. Un-purified plant extracts of THC and CBD were also tested in the experiments with the TRPA1 channels.
(§3) HEK293 (human embryonic kidney) cells were plated on 100 mm diameter Petri dishes and transfected at about 80% confluence with Lipofectamine 2000 (Invitrogen) using a plasmid containing the rat TRPA1, TRPV1 or TRPM8 cDNA, according to the manufacturer's protocol. A stably transfected clone was selected by Geneticin G-418 (Invitrogen) 600 μg/ml. Stable transfection was checked by quantitative real time-PCR (RT-PCR).
(§4) TRPA/TRPV1/TRPM8-HEK-293 cells were plated on 100 mm diameter Petri dishes and after 3 days loaded for 1 hour at room temperature with the cytoplasmic calcium indicator Fluo-4-AM (4 μM, Molecular Probes) dissolved in Tyrode' buffer (NaCl 145 mM; KCl 2.5 mM; CaCl2 1.5 mM; MgCl2 1.2 mM; D-Glucose 10 mM; HEPES 10 mM pH 7.4) containing Pluronic (0.02%, Molecular Probes). The cells were washed twice in Tyrode buffer, resuspended and transferred to the quartz cuvette of the spectrofluorimeter (Perkin-Elmer LS 50B) (λ excitation=488 nm; λ emission=516 nm). Intracellular Ca^2+ concentration was determined before and after the addition of various concentrations of test compounds. EC50 values were determined as the concentration of test substances required to produce half-maximal increases in intracellular Ca^2+ concentration. Curve fitting and parameter estimation was performed with Graph Pad Prism®. The same compounds were tested also on non-transfected HEK 293 cells.

TRPA1 channel = target: T2, TRPA1 channel (Rattus norvegicus, UniProt Q6RI86); test: Intracellular Ca2+ elevation in HEK-293 cells over-expressing rat TRPA1; format: cell-based
T2 construct: expressed in transfected cells
T2 sequence (Q6RI86 whole entry): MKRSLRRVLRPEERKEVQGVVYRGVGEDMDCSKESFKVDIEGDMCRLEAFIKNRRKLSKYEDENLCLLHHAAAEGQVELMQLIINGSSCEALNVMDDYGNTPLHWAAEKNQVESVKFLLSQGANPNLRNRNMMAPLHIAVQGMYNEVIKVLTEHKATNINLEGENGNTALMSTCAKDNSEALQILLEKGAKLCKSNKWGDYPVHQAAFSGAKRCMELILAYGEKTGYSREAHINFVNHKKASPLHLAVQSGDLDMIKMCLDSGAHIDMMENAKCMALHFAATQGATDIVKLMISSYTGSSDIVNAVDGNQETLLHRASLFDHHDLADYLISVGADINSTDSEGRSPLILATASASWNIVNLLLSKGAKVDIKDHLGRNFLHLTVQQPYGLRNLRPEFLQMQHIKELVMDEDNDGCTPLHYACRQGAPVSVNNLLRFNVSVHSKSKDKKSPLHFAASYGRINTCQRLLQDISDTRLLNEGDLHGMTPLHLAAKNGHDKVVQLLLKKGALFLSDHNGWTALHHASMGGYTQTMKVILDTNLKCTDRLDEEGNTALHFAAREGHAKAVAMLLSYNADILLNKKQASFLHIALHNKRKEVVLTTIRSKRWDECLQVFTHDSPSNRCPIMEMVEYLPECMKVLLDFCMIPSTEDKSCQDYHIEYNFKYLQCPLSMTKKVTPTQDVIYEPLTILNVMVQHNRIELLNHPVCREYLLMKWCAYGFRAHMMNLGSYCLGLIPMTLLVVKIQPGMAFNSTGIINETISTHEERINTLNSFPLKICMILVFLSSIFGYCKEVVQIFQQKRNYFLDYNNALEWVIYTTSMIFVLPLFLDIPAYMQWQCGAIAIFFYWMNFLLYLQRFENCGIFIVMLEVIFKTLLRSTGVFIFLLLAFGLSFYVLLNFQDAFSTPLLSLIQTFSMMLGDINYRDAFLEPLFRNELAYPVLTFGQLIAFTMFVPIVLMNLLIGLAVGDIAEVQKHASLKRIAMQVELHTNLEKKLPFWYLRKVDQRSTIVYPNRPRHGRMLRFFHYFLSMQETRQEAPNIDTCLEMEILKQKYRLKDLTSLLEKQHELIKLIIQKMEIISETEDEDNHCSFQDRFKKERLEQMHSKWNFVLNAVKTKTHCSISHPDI
Method: as §1, §2, §3, §4

[1] = HEK293, TRPA1-HEK-293 cells, relative to mustard oil 100 μM, read-out: Maximal response (% of mustard oil 100 μM)
[2] = TRPA1-HEK-293 cells, Fluo-4, read-out: -logEC50% (M) for the elevation of [Ca2+]i (converted)
[3] = TRPA1, summary of Table 1, read-out: EC50 values (range given)

T1 sequence (O35433 whole entry): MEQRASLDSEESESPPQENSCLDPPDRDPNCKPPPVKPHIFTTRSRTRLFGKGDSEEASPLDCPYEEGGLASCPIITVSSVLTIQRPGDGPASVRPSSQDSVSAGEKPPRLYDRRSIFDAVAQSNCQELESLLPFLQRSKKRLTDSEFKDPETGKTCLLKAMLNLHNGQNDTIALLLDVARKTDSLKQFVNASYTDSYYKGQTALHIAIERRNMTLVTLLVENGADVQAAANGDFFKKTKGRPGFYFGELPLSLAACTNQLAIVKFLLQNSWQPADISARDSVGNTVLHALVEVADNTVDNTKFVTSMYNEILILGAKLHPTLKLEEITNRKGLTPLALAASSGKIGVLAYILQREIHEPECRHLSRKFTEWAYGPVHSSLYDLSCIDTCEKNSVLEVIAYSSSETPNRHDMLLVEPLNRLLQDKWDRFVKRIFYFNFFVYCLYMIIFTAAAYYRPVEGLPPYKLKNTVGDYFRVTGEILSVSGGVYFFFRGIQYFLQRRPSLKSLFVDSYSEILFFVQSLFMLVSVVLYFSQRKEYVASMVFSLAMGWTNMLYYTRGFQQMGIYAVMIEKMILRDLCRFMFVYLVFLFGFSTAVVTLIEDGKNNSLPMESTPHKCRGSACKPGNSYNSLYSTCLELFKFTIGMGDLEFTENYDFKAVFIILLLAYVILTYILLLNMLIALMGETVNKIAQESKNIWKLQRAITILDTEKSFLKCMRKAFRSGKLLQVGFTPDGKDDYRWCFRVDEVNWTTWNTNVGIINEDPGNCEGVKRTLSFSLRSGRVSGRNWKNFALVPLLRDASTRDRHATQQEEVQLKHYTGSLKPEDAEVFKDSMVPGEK

Row | SMILES | EC50 (TRPV1 channel) | Emax (TRPV1 channel) | Emax (TRPA1 channel; [1]) | EC50 (TRPA1 channel; [2]) | also measured
1 | C=C(C)[C@@H]1CCC(C)=C[C@H]1c1c(O)cc(CCC)cc1O [CBDV, cannabidivarin] | 1400 nM | 19.8 ± 1.9% |  |  | 
2 | O=CC=Cc1ccccc1 [Cinnamaldehyde, cinnamaldehyde, reference compound] |  |  | 99.1 ± 9% | 1.29e-05 M | 
3 | C=C(C)[C@@H]1CCC(C)=C[C@H]1c1c(O)cc(CCCCC)cc1O [CBD, cannabidiol] | 700 nM | 50 ± 1% | 86.9 ± 8% | 8.51e-08 M | EC50 (TRPA1 channel; [3]): 6e-08 to 1e-07 M
4 | C=C(C)[C@@H]1CCC(C)=C[C@H]1c1c(O)cc(CCCCC)c(C(=O)O)c1O [CBDA, cannabidiolic acid] |  |  | 48.2 ± 6% | 8.13e-07 M | 
5 | COc1cc(CNC(=O)CCCC/C=C/C(C)C)ccc1O [Capsaicin, reference compound] |  | 68.6 ± 1.2% |  |  | 
6 | CCCCCc1cc(O)c2c(c1)OC(C)(CCC=C(C)C)C=C2 (centres unmarked) [CBC, cannabichromene] | 24200 nM | 9 ± 4.9% | 118 ± 10% | 3.31e-08 M | EC50 (TRPA1 channel; [3]): 6e-08 to 1e-07 M
7 | CCCCCc1cc(O)c(C/C=C(\C)CCC=C(C)C)c(O)c1 [CBG, cannabigerol] | 1000 nM | 54.4 ± 5.4% |  |  | 
8 | CCCCCc1cc2c(c(O)c1C(=O)O)[C@@H]1C=C(C)CC[C@H]1C(C)(C)O2 [THCA, tetrahydrocannabinolic acid] |  |  |  |  | Maximal response (% of mustard oil 100 μM) (TRPA1 channel; TRPA1-HEK-293 cells, relative to mustard oil 100 μM): 70.1 ± 8%
9 | CCCCCc1cc(O)c2c(c1)OC(C)(C)[C@@H]1CCC(C)=C[C@@H]21 [THC, tetrahydrocannabinol] |  |  | 117 ± 12% | 1.86e-07 M | 
10 | C=CCN=C=S [Mustard oil (allyl isothiocyanate), allyl isothiocyanate, reference compound] |  |  |  |  | Emax at 100 µM (TRPA1 channel; [1]): 100 ± 11%
